Active and inactive are the calls of the source. The rule behind the calls is not given here.
Columns and labels:
[1] = molecular target: Carbonic anhydrase 1 (Homo sapiens, UniProt P00915); test: Inhibition of human carbonic anhydrase 1 assessed as reduction in CO2 hydration after 15 mins by phenol red staining-based stopped flow assay
[2] = molecular target: Carbonic anhydrase 2 (Homo sapiens, UniProt P00918); test: Inhibition of human carbonic anhydrase 2 assessed as reduction in CO2 hydration after 15 mins by phenol red staining-based stopped flow assay
[3] = molecular target: Carbonic anhydrase 9 (Homo sapiens, UniProt Q16790)
Description: Inhibition of human carbonic anhydrase 9 assessed as reduction in CO2 hydration after 15 mins by phenol red staining-based stopped flow assay

[4] = molecular target: Carbonic anhydrase 12 (Homo sapiens, UniProt O43570);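 also: Stopped-flow CO2 hydration assay with phenol red indicator, 15 min, measuring inhibition of human CA XII enzymatic activity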
Sequence of Carbonic anhydrase 12 (O43570 whole entry): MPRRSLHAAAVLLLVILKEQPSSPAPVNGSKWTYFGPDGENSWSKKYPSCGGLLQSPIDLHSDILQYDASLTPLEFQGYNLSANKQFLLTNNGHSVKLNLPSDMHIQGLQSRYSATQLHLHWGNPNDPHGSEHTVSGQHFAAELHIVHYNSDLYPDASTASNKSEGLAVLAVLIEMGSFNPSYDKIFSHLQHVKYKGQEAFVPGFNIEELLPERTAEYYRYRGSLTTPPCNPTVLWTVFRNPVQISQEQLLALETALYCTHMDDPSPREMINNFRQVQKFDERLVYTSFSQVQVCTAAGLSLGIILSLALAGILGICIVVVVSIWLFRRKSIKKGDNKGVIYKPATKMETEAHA
Description: Inhibition of human carbonic anhydrase 12 assessed as reduction in CO2 hydration after 15 mins by phenol red staining-based stopped flow assay

[5] = tested on: PANC-1; test: Antiproliferative activity against human PANC1 cells at 300 uM after 48 hrs in presence of normoxic condition by MTT assay; assay type: functional, cell-based
[6] = tested on: PANC-1; test: Antiproliferative activity against human PANC1 cells at 300 uM after 48 hrs in presence of hypoxic condition by MTT assay; assay type: functional, cell-based
[7] = tested on: ARPE-19; test: Antiproliferative activity against human ARPE19 cells at 300 uM after 48 hrs in presence of normoxic condition by MTT assay; assay type: cell-based; settings: arpe-19, 48 h
[8] = tested on: ARPE-19; test: Antiproliferative activity against human ARPE19 cells at 300 uM after 48 hrs in presence of hypoxic condition by MTT assay; assay type: cell-based; settings: arpe-19, 48 h
[9] = tested on: PANC-1; test: Antiproliferative activity against human PANC1 cells at 30 to 300 uM after 48 hrs in presence of normoxic condition by MTT assay; assay type: functional, cell-based
[10] = tested on: PANC-1; test: Antiproliferative activity against human PANC1 cells at 30 to 300 uM after 48 hrs in presence of hypoxic condition by MTT assay; assay type: functional, cell-based
[11] = tested on: ARPE-19; test: Antiproliferative activity against human ARPE19 cells at 30 to 300 uM after 48 hrs in presence of normoxic condition by MTT assay; assay type: cell-based; settings: arpe-19, 48 h
[12] = tested on: ARPE-19; test: Antiproliferative activity against human ARPE19 cells at 30 to 300 uM after 48 hrs in presence of hypoxic condition by MTT assay; assay type: cell-based; settings: arpe-19, 48 h
[13] = tested on: ARPE-19; test: Antiproliferative activity against human ARPE19 cells at 30 uM after 48 hrs in presence of normoxic condition by MTT assay; assay type: cell-based; settings: arpe-19, 48 h
[14] = tested on: ARPE-19; test: Antiproliferative activity against human ARPE19 cells at 30 uM after 48 hrs in presence of hypoxic condition by MTT assay; assay type: cell-based; settings: arpe-19, 48 h
[15] = tested on: SK-MEL-2; test: Antiproliferative activity against human SK-MEL-2 cells at 30 uM after 48 hrs in presence of normoxic condition by MTT assay; assay type: functional, cell-based
[16] = tested on: SK-MEL-2; test: Antiproliferative activity against human SK-MEL-2 cells at 30 uM after 48 hrs in presence of hypoxic condition by MTT assay; assay type: functional, cell-based
[17] = tested on: SK-MEL-2; test: Antiproliferative activity against human SK-MEL-2 cells at 300 uM after 48 hrs in presence of normoxic condition by MTT assay; assay type: functional, cell-based
[18] = tested on: SK-MEL-2; test: Antiproliferative activity against human SK-MEL-2 cells at 300 uM after 48 hrs in presence of hypoxic condition by MTT assay; assay type: functional, cell-based
[19] = tested on: PANC-1; test: Antiproliferative activity against human PANC1 cells after 48 hrs in presence of normoxic condition by MTT assay; assay type: functional, cell-based
[20] = tested on: PANC-1; test: Antiproliferative activity against human PANC1 cells after 48 hrs in presence of hypoxic condition by MTT assay; assay type: functional, cell-based
[21] = tested on: PANC-1; test: Antiproliferative activity against human PANC1 cells at 30 uM after 48 hrs in presence of normoxic condition by MTT assay; assay type: functional, cell-based
[22] = tested on: PANC-1; test: Antiproliferative activity against human PANC1 cells at 30 uM after 48 hrs in presence of hypoxic condition by MTT assay; assay type: functional, cell-based
[23] = tested on: SK-MEL-2; test: Antiproliferative activity against human SK-MEL-2 cells after 48 hrs in presence of normoxic condition by MTT assay; assay type: functional, cell-based
[24] = tested on: SK-MEL-2; test: Antiproliferative activity against human SK-MEL-2 cells after 48 hrs in presence of hypoxic condition by MTT assay; assay type: functional, cell-based

Sequence of Carbonic anhydrase 1 (P00915 whole entry): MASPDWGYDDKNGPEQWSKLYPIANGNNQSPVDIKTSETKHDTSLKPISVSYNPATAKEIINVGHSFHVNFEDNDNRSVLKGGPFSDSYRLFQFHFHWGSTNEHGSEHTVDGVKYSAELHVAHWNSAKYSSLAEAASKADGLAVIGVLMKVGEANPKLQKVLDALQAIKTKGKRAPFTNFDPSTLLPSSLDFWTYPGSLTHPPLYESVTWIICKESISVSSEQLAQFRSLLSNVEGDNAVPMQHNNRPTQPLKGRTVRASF

| Compound | Ki [1] [nM] | Ki [2] [nM] | Ki [3] [nM] | Ki [4] [nM] | other results |
| --- | --- | --- | --- | --- | --- |
| NS(=O)(=O)c1cc(-c2nc(-c3ccccc3)no2)cs1 | 8.9 | 1.7 | 0.24 | 9.8 | Activity [5]: Active; Activity [6]: Active; Activity [7]: Toxic; Activity [8]: Toxic |
| COc1cc(S(N)(=O)=O)ccc1-c1noc(-c2cccnc2)n1 | 1020 | 271 | 12.1 | 16.8 |  |
| NS(=O)(=O)c1cccc(-c2noc(C3CC3)n2)c1 |  |  |  |  | Activity [9]: Active; Activity [10]: Active; Activity [11]: Non-Toxic; Activity [12]: Non-Toxic |
| COc1cc(S(N)(=O)=O)ccc1-c1noc(-c2ccc(C#N)cc2)n1 | 779 | 593 | 274 | 32.9 |  |
| NS(=O)(=O)c1ccc(-c2nc(-c3ccccc3)no2)cc1 |  | 1.8 | 6.7 |  |  |
| Cc1nc(-c2csc(S(N)(=O)=O)c2)no1 | 8.1 | 0.91 | 1.6 | 10.1 |  |
| COc1ccccc1-c1noc(-c2csc(S(N)(=O)=O)c2)n1 | 16.2 | 0.64 | 0.13 | 8.8 |  |
| NS(=O)(=O)c1ccc(-c2noc(C3CC3)n2)cc1 | 7.8 | 4.1 | 1.9 | 97.1 |  |
| NS(=O)(=O)c1ccc(-c2noc(-c3ccncc3)n2)cc1 | 48 | 0.3 | 0.44 | 8.2 |  |
| NS(=O)(=O)c1ccc(-c2noc(-c3ccccn3)n2)cc1 | 37.5 | 0.93 | 0.31 | 9.5 |  |
| NS(=O)(=O)c1cc(-c2noc(C3CC3)n2)cs1 | 53 | 0.88 | 2.1 | 9.2 |  |
| NS(=O)(=O)c1cccc(-c2noc(-c3ccsc3)n2)c1 |  |  |  |  | Activity [7]: Toxic; Activity [8]: Toxic; Activity [13]: Non-Toxic; Activity [14]: Non-Toxic; Activity [15]: inactive; Activity [16]: inactive; Activity [17]: inactive; Activity [18]: inactive; Activity [9]: inactive; Activity [10]: inactive |
| COc1cc(S(N)(=O)=O)ccc1-c1noc(-c2cccs2)n1 |  | 92.1 | 15.9 |  |  |
| NS(=O)(=O)c1ccc(-c2noc(-c3cccs3)n2)cc1 | 7.9 | 0.39 | 0.36 | 8.3 | Activity [7]: Toxic; Activity [8]: Toxic; Activity [13]: Non-Toxic; Activity [14]: Non-Toxic; Activity [15]: inactive; Activity [16]: inactive; Activity [17]: inactive; Activity [18]: inactive; Activity [9]: inactive; Activity [10]: inactive |
| NS(=O)(=O)c1cc(-c2nc(-c3ccccn3)no2)cs1 | 25 | 4.3 | 0.39 | 8.5 | Activity [13]: Non-Toxic; Activity [14]: Non-Toxic; Activity [15]: inactive; Activity [16]: inactive; Activity [10]: inactive; Activity [12]: Non-Toxic; Activity [19]: Dose-dependent effect; Activity [20]: Dose-dependent effect |
| NS(=O)(=O)c1cc(-c2nc(C3CC3)no2)cs1 | 9.3 | 0.75 | 0.089 | 10.3 | Activity [21]: Active; Activity [22]: Active; Activity [13]: Non-Toxic; Activity [14]: Non-Toxic; Activity [15]: Active; Activity [16]: Active |
| COc1cccc(-c2noc(-c3ccc(S(N)(=O)=O)cc3)n2)c1 |  | 0.48 | 243 |  |  |
| COc1cc(S(N)(=O)=O)ccc1-c1noc(-c2ccccc2)n1 | 459 | 8.8 | 13.1 | 33.1 |  |
| COc1ccccc1-c1noc(-c2ccc(S(N)(=O)=O)cc2)n1 |  | 0.51 | 21.1 |  |  |
| COc1cc(S(N)(=O)=O)ccc1-c1noc(-c2ccsc2)n1 | 1160 | 92.1 | 15.9 | 32.1 |  |
| COc1cccc(-c2noc(-c3csc(S(N)(=O)=O)c3)n2)c1 | 5.4 | 0.82 | 2.2 | 33.6 | Activity [9]: Active; Activity [10]: Active; Activity [11]: Non-Toxic; Activity [12]: Non-Toxic; Activity [19]: Dose-dependent effect; Activity [20]: Dose-dependent effect; Activity [23]: inactive; Activity [24]: inactive |

Source: ChEMBL document CHEMBL4422619, “Continued exploration of 1,2,4-oxadiazole periphery for carbonic anhydrase-targeting primary arene sulfonamides: Discovery of subnanomolar inhibitors of membrane-bound hCA IX isoform that selectively kill cancer cells in hypoxic environment” (Eur J Med Chem, 2019)
